According to ChEMBL document CHEMBL5244230, “Artemisinin-derived hybrids and their anticancer activity” (Eur J Med Chem, 2020):
In brackets after ≈: the same amount, converted by molar mass. Several values for one entry are separate records, joined by “and”; a condition that tells them apart may be missing. Equal values may be shown once. Values belong to the molecule of their own block, whether it stands above or below them.

Columns and labels:
HT-29 [1] = test: Antiproliferative activity against human HT-29 cells assessed as reduction in cell viability; assay type: functional, cell-based
MCF7 [2] = test: Anticancer activity against human MCF7 cells; assay type: functional, cell-based
A549 = test: Antiproliferative activity against human A549 cells; assay type: functional, cell-based
[3] = Antiproliferative activity against mouse P388 cells assessed as reduction in cell viability measured after 72 hrs; assay type: functional, cell-based; details: 72 h
HL-60 [4] = test: Antiproliferative activity against human HL-60 cells assessed as reduction in cell viability measured after 72 hrs; assay type: functional, cell-based; details: HL-60, 72 h
P388/ADR [5] = test: Antiproliferative activity against mouse P388/ADR cells assessed as reduction in cell viability measured after 72 hrs; assay type: functional, cell-based; details: 72 h
K562 = test: Antiproliferative activity against human K562 cells; assay type: functional, cell-based
PC-3 = test: Antiproliferative activity against human PC-3 cells; assay type: functional, cell-based
A-431 = test: Antiproliferative activity against human A-431 cells; assay type: functional, cell-based
MDA-MB-231 = test: Antiproliferative activity against human MDA-MB-231 cells; assay type: functional, cell-based
COLO 205 = test: Antiproliferative activity against human COLO 205 cells; assay type: functional, cell-based
HEK293 = test: Antiproliferative activity against human HEK293 cells; assay type: functional, cell-based
MCF7 [6] = test: Anticancer activity against human MCF7 cells assessed as inhibition of cell growth; assay type: functional, cell-based
[7] = Anticancer activity against human Lu1 cells; assay type: functional, cell-based
HL-60 [8] = test: Anticancer activity against human HL-60 cells; assay type: functional, cell-based
P388 [9] = test: Anticancer activity against mouse P388 cells; assay type: functional, cell-based
SMMC-7721 = test: Antiproliferative activity against human SMMC-7721 cells; assay type: functional, cell-based
[10] = Antiproliferative activity against human U-87 MG cells; assay type: functional, cell-based, U-87MG ATCC
NCI-H460 = test: Antiproliferative activity against human NCI-H460 cells; assay type: functional, cell-based
Plasmodium falciparum [11] = test: Antiplasmodial activity against Plasmodium falciparum K1; assay type: functional, organism-based
Plasmodium falciparum [12] = test: Antiplasmodial activity against Plasmodium falciparum HB3; assay type: functional, organism-based
Leukemia cell = test: Antiproliferative activity against human Leukemia cell; assay type: functional
Colon cell line = test: Antiproliferative activity against human Colon cell line; assay type: functional
Melanoma cell line = test: Antiproliferative activity against human Melanoma cell; assay type: functional
Prostatic carcinoma cell = test: Antiproliferative activity against human Prostatic carcinoma cell; assay type: functional
HL-60 [13] = test: Antiproliferative activity against human HL-60 cells; assay type: functional, cell-based
HepG2 = test: Antiproliferative activity against human HepG2 cells; assay type: functional, cell-based
HSC-2 = test: Cytotoxicity against human HSC-2 cells; assay type: functional, cell-based
Ca9-22 = test: Cytotoxicity against human Ca9-22 cells; assay type: functional, cell-based
HCT-116 [14] = test: Antiproliferative activity against human HCT-116 cells; assay type: functional, cell-based
HeLa [15] = test: Antiproliferative activity against human HeLa cells; assay type: functional, cell-based
[16] = Antiproliferative activity against human 1205Lu cells; assay type: functional, cell-based
[17] = Cytotoxicity against human HEK293 cells; assay type: toxicity, cell-based
EL4 = test: Antiproliferative activity against mouse EL4 cells; assay type: functional, cell-based
HT-29 [18] = test: Antiproliferative activity against human HT-29 cells; assay type: functional, cell-based
DLD-1 = test: Cytotoxicity against human DLD-1 cells assessed as cell growth inhibition measured after 48 hrs by MTT assay; assay type: functional
[19] = Cytotoxicity against human U87 cells assessed as cell growth inhibition measured after 48 hrs by MTT assay; assay type: functional, U-87MG ATCC; details: U-87 MG
HeLa [20] = test: Cytotoxicity against human HeLa cells assessed as cell growth inhibition measured after 48 hrs by MTT assay; assay type: functional
SiHa = test: Cytotoxicity against human SiHa cells assessed as cell growth inhibition measured after 48 hrs by MTT assay; assay type: functional
A 172 = test: Cytotoxicity against human A-172 cells assessed as cell growth inhibition measured after 48 hrs by MTT assay; assay type: functional
B16 = test: Cytotoxicity against mouse B16 cells assessed as cell growth inhibition measured after 48 hrs by MTT assay; assay type: functional
HeLa [21] = test: Potency index, ratio of artesunate IC50 to test compound IC50 for antiproliferative activity against human HeLA cells assessed as inhibition of cell growth; assay type: functional
HCT-116 [22] = test: Potency index, ratio of artesunate IC50 to test compound IC50 for antiproliferative activity against human HCT-116 cells assessed as inhibition of cell growth; assay type: functional
[23] = Cytotoxicity against human HFF cells; assay type: toxicity, cell-based
[24] = Potency index, ratio of artesunate IC50 to test compound IC50 for antiproliferative activity against human 1205Lu cells assessed as inhibition of cell growth; assay type: functional
MCF7 [25] = test: Antiproliferative activity against doxorubicin resistant human MCF7 cells; assay type: functional, cell-based
P388 [26] = test: Potency index, ratio of test compound IC50 to dihydroartemisinin IC50 for antiproliferative activity against mouse P388 cells assessed as reduction in cell viability measured after 72 hrs; assay type: functional
HL-60 [27] = test: Potency index, ratio of test compound IC50 to dihydroartemisinin IC50 for antiproliferative activity against human HL-60 cells assessed as reduction in cell viability measured after 72 hrs; assay type: functional
P388/ADR [28] = test: Potency index, ratio of test compound IC50 to dihydroartemisinin IC50 for antiproliferative activity against mouse P388/ADR cells assessed as reduction in cell viability measured after 72 hrs; assay type: functional

IC50 (HT-29 [1]): 5.29 µM | IC50 (MCF7 [2]): 39.9 µM | IC50 (A549): 5.29 µM | IC50 (HL-60 [4]): 0.299 µM | IC50 (P388/ADR [5]): 20.7 µM | IC50 (K562): 15.7 µM | IC50 (PC-3): 15.7 µM | IC50 (A-431): 15.7 µM | IC50 (MDA-MB-231; mda-mb-231): 15.7 µM and 5.29 µM | IC50 (COLO 205): 15.7 µM | IC50 (MCF7 [6]): 39.9 µM | IC50 [7]: 39.9 µM | IC50 (HL-60 [8]): 39.9 µM | IC50 (P388 [9]): 39.9 µM | IC50 (SMMC-7721): 0.4 µM | IC50 (NCI-H460): 5.29 µM
Compound: C[C@H]1[C@@H](O)O[C@@H]2O[C@@]3(C)CC[C@H]4[C@H](C)CC[C@@H]1[C@@]24OO3 [ARTENIMOL]
IC50 [3]: 1.5 µM | IC50 (HEK293): 15.7 µM | IC50 [10]: 5.29 µM

Compound: C[C@H]1[C@@H](CCOP(=O)(OCC[C@H]2[C@@H](C)O[C@@H]3O[C@@]4(C)CC[C@H]5[C@H](C)CC[C@@H]2[C@@]35OO4)Oc2ccccc2)O[C@@H]2O[C@@]3(C)CC[C@H]4[C@H](C)CC[C@@H]1[C@@]24OO3 (stereo not given in full)
IC50 (Plasmodium falciparum [11]): 0.09 nM | IC50 (Plasmodium falciparum [12]): 0.09 nM | GI50 (Leukemia cell): 0.01 µM | GI50 (Colon cell line): < 0.01 µM | GI50 (Melanoma cell line): < 0.01 µM | GI50 (Prostatic carcinoma cell): < 0.01 µM

Compound: C[C@H]1[C@@H](NC(=O)CCC(=O)NO)O[C@@H]2O[C@@]3(C)CC[C@H]4[C@H](C)CC[C@@H]1[C@@]24OO3
IC50 (MCF7 [2]): 1.28 mg/L | IC50 (HL-60 [13]): 1.28 mg/L (≈ 3.21 µM) | IC50 (HepG2): 1.28 mg/L (≈ 3.21 µM)

Compound: C[C@H]1[C@@H](CCC(=O)Nc2cnc3ccccc3c2)O[C@@H]2O[C@@]3(C)CC[C@H]4[C@H](C)CC[C@@H]1[C@@]24OO3
IC50 (HSC-2): 36.9 µM | IC50 (Ca9-22): 49.7 µM

Compound: C[C@H]1[C@@H](CCC(=O)Nc2ccc(F)cc2)O[C@@H]2O[C@]3(C)CC[C@H]4[C@H](C)CC[C@@H]1[C@@]24OO3
IC50 (HCT-116 [14]): 40 µM | IC50 (HeLa [15]): 40 µM | IC50 [16]: 40 µM

Compound: C[C@H]1[C@@H](OCc2cn(-c3ccccc3C(=O)/C=C/c3ccccc3C(F)(F)F)nn2)O[C@@H]2O[C@@]3(C)CC[C@H]4[C@H](C)CC[C@@H]1[C@@]24OO3
IC50 (A549): 4.06 µM | IC50 (K562): 4.06 µM | IC50 (PC-3): 4.06 µM | IC50 (A-431): 4.06 µM | IC50 (MDA-MB-231; Homo sapiens, MDA-MB-231): 4.06 µM | IC50 (COLO 205): 4.06 µM | IC50 (HEK293): 4.06 µM | IC50 [17]: > 100 mg/L

Compound: C[C@H]1[C@@H](OCc2cn(-c3ccc(O)cc3)nn2)O[C@@H]2O[C@@]3(C)CC[C@H]4[C@H](C)CC[C@@H]1[C@@]24OO3
IC50 (A549): 4.06 µM | IC50 (K562): 4.06 µM | IC50 (PC-3): 4.06 µM | IC50 (A-431): 4.06 µM | IC50 (MDA-MB-231; Homo sapiens, MDA-MB-231): 4.06 µM | IC50 (COLO 205): 4.06 µM | IC50 (HEK293): 4.06 µM | IC50 [17]: > 100 mg/L

Compound: C[C@H]1[C@H](CCS(=O)(=O)CC[C@H]2O[C@@H]3O[C@@]4(C)CC[C@H]5[C@H](C)CC[C@@H]([C@H]2C)[C@@]35OO4)O[C@@H]2O[C@@]3(C)CC[C@H]4[C@H](C)CC[C@@H]1[C@@]24OO3
IC50 (MCF7 [2]): 0.025 µM | IC50 (EL4): 0.025 µM | IC50 (HT-29 [18]): 0.025 µM

IC50 (MCF7 [2]): > 40 µM
Compound: CC(=O)O[C@H]1C(=O)[C@@]2(C)[C@H]([C@H](OC(=O)c3ccccc3)[C@]3(O)C[C@H](OC(=O)[C@H](O)[C@@H](NC(=O)c4ccccc4)c4ccccc4)C(C)=C1C3(C)C)[C@]1(OC(C)=O)CO[C@@H]1C[C@@H]2O [PACLITAXEL]
GI50 (DLD-1): 0.01 µM | IC50 (HSC-2): > 100 µM | IC50 (Ca9-22): > 100 µM | GI50 [19]: 0.01 µM | GI50 (HeLa [20]): 0.01 µM | GI50 (SiHa): 0.01 µM | GI50 (A 172): 0.01 µM | GI50 (B16): 0.01 µM

Compound: C[C@H]1[C@@H](CC(C[C@H]2O[C@@H]3O[C@@]4(C)CC[C@H]5[C@H](C)CC[C@@H]([C@H]2C)[C@@]35OO4)CS(=O)(=O)c2ccc(COC(=O)N(C)C)cc2)O[C@@H]2O[C@@]3(C)CC[C@H]4[C@H](C)CC[C@@H]1[C@@]24OO3 (stereo not given in full)
Ratio IC50 (HeLa [21]): 12.6 | Ratio IC50 (HCT-116 [22]): 12.6 | IC50 (HCT-116 [14]): 0.07 µM | IC50 (HeLa [15]): 0.07 µM | IC50 [16]: 0.07 µM | IC50 [23]: 4.9 µM | Ratio IC50 [24]: 12.6

Compound: C[C@H]1[C@@H](Oc2ccc(Cn3ccnn3)cc2)O[C@@H]2O[C@@]3(C)CC[C@H]4[C@H](C)CC[C@@H]1[C@@]24OO3
IC50 (MCF7 [25]): 0.047 µM | IC50 [3]: 0.047 µM | IC50 (HL-60 [4]): 0.065 µM | IC50 (P388/ADR [5]): 2.89 µM | Ratio IC50 (P388 [26]): 4.6 | Ratio IC50 (HL-60 [27]): 4.6 | Ratio IC50 (P388/ADR [28]): 4.6
